Assays:
[1] = test system: allodynia induced by constriction of the sciatic nerve; test: allodynia induced by chronic constriction of the sciatic nerve (von Frey hairs); type: in vivo, rat; settings: saline + antagonist alone i.pl. (ICI 10, nor-BNI 50, CTOP 20 μg/paw); for paw withdrawal threshold (allodynia), FM 1 h: 1 h after treatment; for paw withdrawal threshold (allodynia), FM 3 h: 3 h after treatment; for paw withdrawal threshold (allodynia), BM: before surgery; for paw withdrawal threshold (allodynia), IM: day 14, before treatment
Method: (§1) For the induction of neuropathic pain, surgery was performed in the sciatic nerve, in accordance with the method described by Bennett, G. J and Xie, Y. K. (Pain, 33:87-107, 1988). The animals were anesthetized with halothane. The sciatic nerve was exposed in the middle region of the thigh, moving away the femoral biceps muscle. Close to the trifurcation of the sciatic nerve, 7 mm of distance from the trifurcation, 4 loose ligations were performed (chromed catgut 4-0) around it, distant from each other in approximately 1 mm. The bindings were performed along the nerve, up to 4-5 mm from the initial point. The incision was sutured in layers, using silk suture thread number 4-0.
Allodynia was evaluated for quantitative testing, in response to tactile stimulus applied to the paws of the rat, according to the method described by Chaplan el al. (1994), modified. In this test, the rats were placed, individually, in plastic cages, with meshed wire at the bottom, to allow access to the paws of these animals. Briefly, a logarithmic series of 10 calibrated Semmes-Weinstein monofilaments (von Frey hairs, Aesthesiometer Semmer-Weinstein, Stoelting Co., E.U.A) was applied to the right hind paw to determine the stimulus intensity threshold stiffness required to elicit a paw withdrawal response. Log stiffness of the hairs is determined by log 10 (mg×10) having the following values (the value in grams is between parenthesis): 3.61 (0.407 g); 3.84 (0.692 g); 4.08 (1.202 g); 4.17 (1.479 g); 4.31 (2.041 g); 4.56 (3.630 g); 4.74 (5.495 g); 4.93 (8.511 g); 5.07 (11.749 g) and 5.18 (15.136 g). It is important to point out that the filaments with weight greater than 15.136 g were not employed in the studies of allodynia.
The filaments were applied, one by one, perpendicularly, under the plantar area of both hind paws and maintained for a period of 8 seconds. The filament capable of eliciting the withdrawal of the paw, two consecutive times, was considered as the force in grams necessary to elicit the response (100% of response). In the absence of a response to the greater stimulus (15.135 g), this filament was considered as cut value.
The behavioral responses were used to calculate the 50% paw withdrawal threshold (absolute threshold), by fitting a gaussian integral psychometric function, using a maximum-likelihood fitting method. This fitting method allows parametric analyses.
The period of the application of the test and the treatments were the same as those used for determination of hyperalgesia (Table 12).
The results were analyzed by comparing the means of the basal and initial measurements or, when determined, by comparing the means obtained in the different experimental groups.
(§2) For this purpose, the animals were treated with CTOP, a specific μ receptor antagonist (20 μg/paw), nor-BNI, a specific κ receptor antagonist (50 μg/paw) or with ICI 174,864, a specific δ receptor antagonist (10 μg/paw). The antagonists were injected, by intraplantar route. The peptide was administered in the dose of 5 μg/kg, orally, immediately before the injection of the opioid antagonists.
(§3) The results were analyzed comparing the mean values of the basal and initial measurements, or of the initial and final measurements or, when determined, by comparing the mean values obtained in the different experimental groups (Tables 15 and 16).

[2] = test system: hyperalgesia induced by chronic constriction of the sciatic nerve; test: hyperalgesia induced by chronic constriction of the sciatic nerve (rat paw pressure test); type: in vivo; settings: saline + antagonist alone i.pl. (ICI 10, nor-BNI 50, CTOP 20 μg/paw); for pain threshold, FM 1 h: 1 h after treatment; for pain threshold, MF 3 h: 3 h after treatment; for pain threshold, BM: before surgery; for pain threshold, IM: day 14, before treatment
Method: as §1
The test was applied before (BM-basal measurement) and on the 14th day after the surgery, to characterize the development of neuropathic pain.
The results were analyzed by comparing the means of the basal and initial measurements or by comparing the means of the initial and final measurements or, when determined, through the comparison of the means obtained in the different experimental groups.
as §2, §3

[3] = test system: carrageenin-induced hyperalgesia; test: rat paw pressure test, carrageenin-induced hyperalgesia; type: in vivo; settings: for pain threshold, IM (g) ± S.E.M.: saline + antagonist alone i.pl. (CTOP 20, nor-BNI 50, ICI 174.864 10 μg/paw), before carrageenin; for pain threshold, FM (g) ± S.E.M: saline + antagonist alone i.pl. with carrageenin (CTOP 20, nor-BNI 50, ICI 174.864 10 μg/paw), after carrageenin
Method: The antinociceptive effect of the synthetic peptide was evaluated in the inflammatory hyperalgesia induced by carrageenin. […] Saline, administered by the same route was used as control.
As determined in the PGE2 model, the participation of opioid receptors in the antinociceptive effect of the peptide SEQ ID NO: 2 in the carrageenin-induced hyperalgesia (Table 10) was investigated. Therefore, the animals were treated with CTOP, a specific μ receptor antagonist (20 μg/paw), nor-BNI, a specific κ receptor antagonist (50 μg/paw) or with ICI 174.864, a specific δ receptor antagonist (10 μg/paw), injected by i.pl. route concomitantly to carrageenin. Peptide was administered in the dose of 1 μg/kg, orally, immediately before carrageenin.

| Compound | paw withdrawal threshold (allodynia), FM 1 h [1] | paw withdrawal threshold (allodynia), FM 3 h [1] | paw withdrawal threshold (allodynia), BM [1] | paw withdrawal threshold (allodynia), IM [1] | pain threshold, FM 1 h [2] [g] | pain threshold, MF 3 h [2] [g] | pain threshold, BM [2] [g] | pain threshold, IM [2] [g] | pain threshold, IM (g) ± S.E.M. [3] [g] | pain threshold, FM (g) ± S.E.M [3] [g] |
| --- | --- | --- | --- | --- | --- | --- | --- | --- | --- | --- |
| Oc1ccc2c3c1O[C@H]1c4[nH]c5c(c4C[C@@]4(O)[C@@H](C2)N(CC2CC2)CC[C@]314)C[C@@]1(O)[C@H]2Cc3ccc(O)c4c3[C@@]1(CCN2CC1CC1)[C@H]5O4 [nor-BNI, nor-Binalthorphimine, reference compound] | 4.22 ± 0 log 10 (mg × 10) | 4.22 ± 0 log 10 (mg × 10) | 5.08 ± 0 log 10 (mg × 10) | 4.22 ± 0 log 10 (mg × 10) | 32 ± 1.22 | 31 ± 1.00 | 72 ± 1.22 | 32 ± 1.22 | 72 ± 1.12 | 52 ± 2.79 |
| CTOP [reference compound] | 4.22 ± 0 log 10 (mg × 10) | 4.22 ± 0 log 10 (mg × 10) | 5.08 ± 0 log 10 (mg × 10) | 4.22 ± 0 log 10 (mg × 10) | 30 ± 1.58 | 30 ± 1.58 | 72 ± 1.22 | 28 ± 1.22 | 73 ± 1.25 | 49 ± 1.25 |
